Laboratory results from patent publication US10499642B2, “Isoxazoline-substituted benzamides and analogues as insecticides” (SYNGENTA PARTICIPATIONS AG, priority 2015, dated 2019).

Experiments:
Format in all cases: in vivo
Tetranychus urticae = Tetranychus urticae (two-spotted spider mite) bean leaf disc test; details: foliar, 192 h
Description: Tetranychus urticae (Two-Spotted Spider Mite):
Bean leaf discs on agar in 24-well microtiter plates were sprayed with aqueous test solutions prepared from 10′000 ppm DMSO stock solutions. After drying the leaf discs were infested with a mite population of mixed ages. The samples were assessed for mortality on mixed population (mobile stages) 8 days after infestation.

Myzus persicae = Myzus persicae (green peach aphid) sunflower leaf disc test; details: foliar, 144 h
Description: Myzus persicae (Green Peach Aphid):
Sunflower leaf discs were placed on agar in a 24-well microtiter plate and sprayed with test solutions at an application rate of 200 ppm. After drying, the leaf discs were infested with an aphid population of mixed ages. After an incubation period of 6 days after treatment, samples were checked for mortality. The following compounds gave at least 80% mortality of Myzus persicae: […]

Thrips tabaci = Thrips tabaci (onion thrips) sunflower leaf disc test; details: foliar, 144 h
Description: Thrips tabaci (Onion Thrips):
Sunflower leaf discs were placed on agar in 24-well microtiter plates and sprayed with aqueous test solutions prepared from 10′000 ppm DMSO stock solutions. After drying the leaf discs were infested with a thrips population of mixed ages. The samples were assessed for mortality 6 days after infestation.

Plutella xylostella = Plutella xylostella (diamond back moth) artificial diet test; details: 120 h, read-out: effect in at least one of the two categories (mortality or growth inhibition)
Outline: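 At a 200 ppm rate, test solutions were applied to artificial diet and allowed to dry before second-instar larvae were added. Five days later, larval mortality and growth inhibition were rated against untreated samples.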

Diabrotica Balteata = assay: Diabrotica balteata (corn root worm) maize sprout test; details: 96 h, read-out: effect in at least one of the two categories (mortality or growth inhibition)
Outline: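 Scoring covered both mortality and growth inhibition relative to untreated controls, 4 days post-infestation. Test solutions at 200 ppm, diluted in water from 10′000 ppm DMSO stocks, were sprayed onto agar-held maize sprouts, which after drying received 6 to 10 L2 larvae each well.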

Spodoptera littoralis = Spodoptera littoralis (Egyptian cotton leaf worm) cotton leaf disc test; details: foliar, 72 h, read-out: control (at least one of mortality, anti-feedant effect, and growth inhibition)
Outline: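 Five first-instar larvae per disc were placed on dried, sprayed cotton leaf discs held on agar. Test solutions were aqueous, made from 10′000 ppm DMSO stocks. At day 3, control was counted when mortality, feeding deterrence or growth inhibition exceeded the untreated discs.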

Cc1cc(C2=NO[C@@](c3cc(Cl)c(Cl)c(Cl)c3)(C(F)(F)F)C2)ccc1C(=O)NC1CC(OCc2ccncc2)=NO1 (stereo partly drawn) [Compound A124, 2-methyl-N-[3-(4-pyridylmethoxy)-4,5-dihydroisoxazol-5-yl]-4-[(5S)-5-(3,4,5-trichlorophenyl)-5-(trifluoromethyl)-4H-isoxazol-3-yl]benzamide]
≥ 80%: mortality at 200 ppm (Tetranychus urticae) | mortality at 200 ppm (Myzus persicae) | mortality at 200 ppm (Thrips tabaci) | percent effect (mortality or growth inhibition) at 200 ppm (Plutella xylostella) | percent effect (mortality or growth inhibition) at 200 ppm (Diabrotica Balteata) | percent control (mortality, anti-feedant effect or growth inhibition) at 200 ppm (Spodoptera littoralis)

Cc1cc(C2=NO[C@@](c3cc(Cl)c(Cl)c(Cl)c3)(C(F)(F)F)C2)ccc1C(=O)NC1CC(Br)=NO1 (stereo partly drawn) [Compound A125, N-(3-bromo-4,5-dihydroisoxazol-5-yl)-2-methyl-4-[(5S)-5-(3,4,5-trichlorophenyl)-5-(trifluoromethyl)-4H-isoxazol-3-yl]benzamide]
≥ 80%: mortality at 200 ppm (Tetranychus urticae) | mortality at 200 ppm (Myzus persicae) | mortality at 200 ppm (Thrips tabaci) | percent effect (mortality or growth inhibition) at 200 ppm (Plutella xylostella) | percent effect (mortality or growth inhibition) at 200 ppm (Diabrotica Balteata) | percent control (mortality, anti-feedant effect or growth inhibition) at 200 ppm (Spodoptera littoralis)

COC1=NOC(NC(=O)c2ccc(C3=NOC(c4cc(Cl)cc(Cl)c4)(C(F)(F)F)C3)cc2C)C1 (stereo not drawn) [Compound A126]
≥ 80%: mortality at 200 ppm (Tetranychus urticae) | mortality at 200 ppm (Myzus persicae) | mortality at 200 ppm (Thrips tabaci) | percent effect (mortality or growth inhibition) at 200 ppm (Plutella xylostella) | percent effect (mortality or growth inhibition) at 200 ppm (Diabrotica Balteata) | percent control (mortality, anti-feedant effect or growth inhibition) at 200 ppm (Spodoptera littoralis)

Cc1cc(C2=NO[C@@](c3cc(Cl)c(Cl)c(Cl)c3)(C(F)(F)F)C2)ccc1C(=O)NC1CC(OCC(F)F)=NO1 (stereo partly drawn) [Compound A127, N-[3-(2,2-difluoroethoxy)-4,5-dihydroisoxazol-5-yl]-2-methyl-4-[(5S)-5-(3,4,5-trichlorophenyl)-5-(trifluoromethyl)-4H-isoxazol-3-yl]benzamide]
≥ 80%: mortality at 200 ppm (Tetranychus urticae) | mortality at 200 ppm (Myzus persicae) | mortality at 200 ppm (Thrips tabaci) | percent effect (mortality or growth inhibition) at 200 ppm (Plutella xylostella) | percent effect (mortality or growth inhibition) at 200 ppm (Diabrotica Balteata) | percent control (mortality, anti-feedant effect or growth inhibition) at 200 ppm (Spodoptera littoralis)

Cc1cc(C2=NO[C@@](c3cc(Cl)cc(Cl)c3)(C(F)(F)F)C2)ccc1C(=O)NC1CC(OCC(F)F)=NO1 (stereo partly drawn) [Compound A128]
≥ 80%: mortality at 200 ppm (Tetranychus urticae) | mortality at 200 ppm (Myzus persicae) | mortality at 200 ppm (Thrips tabaci) | percent effect (mortality or growth inhibition) at 200 ppm (Plutella xylostella) | percent effect (mortality or growth inhibition) at 200 ppm (Diabrotica Balteata) | percent control (mortality, anti-feedant effect or growth inhibition) at 200 ppm (Spodoptera littoralis)

Cc1cc(C2=NO[C@@](c3cc(Cl)c(Cl)c(Cl)c3)(C(F)(F)F)C2)ccc1C(=O)NC1CC(OCC(F)(F)F)=NO1 (stereo partly drawn) [Compound A129, 2-methyl-4-[(5S)-5-(3,4,5-trichlorophenyl)-5-(trifluoromethyl)-4H-isoxazol-3-yl]-N-[3-(2,2,2-trifluoroethoxy)-4,5-dihydroisoxazol-5-yl]benzamide]
≥ 80%: mortality at 200 ppm (Tetranychus urticae) | mortality at 200 ppm (Myzus persicae) | mortality at 200 ppm (Thrips tabaci) | percent effect (mortality or growth inhibition) at 200 ppm (Plutella xylostella) | percent effect (mortality or growth inhibition) at 200 ppm (Diabrotica Balteata) | percent control (mortality, anti-feedant effect or growth inhibition) at 200 ppm (Spodoptera littoralis)

Cc1cc(C2=NO[C@@](c3cc(Cl)cc(Cl)c3)(C(F)(F)F)C2)ccc1C(=O)NC1CC(OCC(F)(F)F)=NO1 (stereo partly drawn) [Compound A130, 4-[(5S)-5-(3,5-dichlorophenyl)-5-(trifluoromethyl)-4H-isoxazol-3-yl]-2-methyl-N-[3-(2,2,2-trifluoroethoxy)-4,5-dihydroisoxazol-5-yl]benzamide]
≥ 80%: mortality at 200 ppm (Tetranychus urticae) | mortality at 200 ppm (Myzus persicae) | mortality at 200 ppm (Thrips tabaci) | percent effect (mortality or growth inhibition) at 200 ppm (Plutella xylostella) | percent effect (mortality or growth inhibition) at 200 ppm (Diabrotica Balteata) | percent control (mortality, anti-feedant effect or growth inhibition) at 200 ppm (Spodoptera littoralis)

CCOC1=NOC(N(C(=O)OC(C)(C)C)C(=O)c2ccc(C3=NO[C@@](c4cc(Cl)c(F)c(Cl)c4)(C(F)(F)F)C3)cc2C)C1 (stereo partly drawn) [Compound A132, tert-butyl N-[4-[(5S)-5-(3,5-dichloro-4-fluoro-phenyl)-5-(trifluoromethyl)-4H-isoxazol-3-yl]-2-methyl-benzoyl]-N-(3-ethoxy-4,5-dihydroisoxazol-5-yl)carbamate]
≥ 80%: mortality at 200 ppm (Tetranychus urticae) | mortality at 200 ppm (Myzus persicae) | mortality at 200 ppm (Thrips tabaci) | percent effect (mortality or growth inhibition) at 200 ppm (Plutella xylostella) | percent effect (mortality or growth inhibition) at 200 ppm (Diabrotica Balteata) | percent control (mortality, anti-feedant effect or growth inhibition) at 200 ppm (Spodoptera littoralis)

CCOC1=NOC(N(C=O)C(=O)c2ccc(C3=NO[C@@](c4cc(Cl)cc(Cl)c4)(C(F)(F)F)C3)cc2C)C1 (stereo partly drawn) [Compound A133, 4-[(5S)-5-(3,5-dichlorophenyl)-5-(trifluoromethyl)-4H-isoxazol-3-yl]-N-(3-ethoxy-4,5-dihydroisoxazol-5-yl)-N-formyl-2-methyl-benzamide]
≥ 80%: mortality at 200 ppm (Tetranychus urticae) | mortality at 200 ppm (Myzus persicae) | mortality at 200 ppm (Thrips tabaci) | percent effect (mortality or growth inhibition) at 200 ppm (Plutella xylostella) | percent effect (mortality or growth inhibition) at 200 ppm (Diabrotica Balteata) | percent control (mortality, anti-feedant effect or growth inhibition) at 200 ppm (Spodoptera littoralis)

COC1=NOC(N(C=O)C(=O)c2ccc(C3=NO[C@@](c4cc(Cl)cc(Cl)c4)(C(F)(F)F)C3)cc2C)C1 (stereo partly drawn) [Compound A134]
≥ 80%: mortality at 200 ppm (Tetranychus urticae) | mortality at 200 ppm (Myzus persicae) | mortality at 200 ppm (Thrips tabaci) | percent effect (mortality or growth inhibition) at 200 ppm (Plutella xylostella) | percent effect (mortality or growth inhibition) at 200 ppm (Diabrotica Balteata) | percent control (mortality, anti-feedant effect or growth inhibition) at 200 ppm (Spodoptera littoralis)

Cc1cc(C2=NO[C@@](c3cc(Cl)cc(Cl)c3)(C(F)(F)F)C2)ccc1C(=O)NC1CC(C(F)(F)F)=NO1 (stereo partly drawn) [Compound A136, 4-[(5S)-5-(3,5-dichlorophenyl)-5-(trifluoromethyl)-4H-isoxazol-3-yl]-2-methyl-N-[3-(trifluoromethyl)-4,5-dihydroisoxazol-5-yl]benzamide]
≥ 80%: mortality at 200 ppm (Tetranychus urticae) | mortality at 200 ppm (Myzus persicae) | mortality at 200 ppm (Thrips tabaci) | percent effect (mortality or growth inhibition) at 200 ppm (Plutella xylostella) | percent effect (mortality or growth inhibition) at 200 ppm (Diabrotica Balteata) | percent control (mortality, anti-feedant effect or growth inhibition) at 200 ppm (Spodoptera littoralis)

CCC1=NOC(NC(=O)c2ccc(C3=NO[C@@](c4cc(Cl)cc(Cl)c4)(C(F)(F)F)C3)cc2C)C1 (stereo partly drawn) [Compound A137]
≥ 80%: mortality at 200 ppm (Tetranychus urticae) | mortality at 200 ppm (Myzus persicae) | mortality at 200 ppm (Thrips tabaci) | percent effect (mortality or growth inhibition) at 200 ppm (Plutella xylostella) | percent effect (mortality or growth inhibition) at 200 ppm (Diabrotica Balteata) | percent control (mortality, anti-feedant effect or growth inhibition) at 200 ppm (Spodoptera littoralis)

Cc1cc(C2=NO[C@@](c3cc(Cl)cc(Cl)c3)(C(F)(F)F)C2)ccc1C(=O)N(C=O)C1CC(C(F)(F)F)=NO1 (stereo partly drawn) [Compound A138]
≥ 80%: mortality at 200 ppm (Tetranychus urticae) | mortality at 200 ppm (Myzus persicae) | mortality at 200 ppm (Thrips tabaci) | percent effect (mortality or growth inhibition) at 200 ppm (Plutella xylostella) | percent effect (mortality or growth inhibition) at 200 ppm (Diabrotica Balteata) | percent control (mortality, anti-feedant effect or growth inhibition) at 200 ppm (Spodoptera littoralis)

CCC1=NOC(N(C=O)C(=O)c2ccc(C3=NO[C@@](c4cc(Cl)cc(Cl)c4)(C(F)(F)F)C3)cc2C)C1 (stereo partly drawn) [Compound A139]
≥ 80%: mortality at 200 ppm (Tetranychus urticae) | mortality at 200 ppm (Myzus persicae) | mortality at 200 ppm (Thrips tabaci) | percent effect (mortality or growth inhibition) at 200 ppm (Plutella xylostella) | percent effect (mortality or growth inhibition) at 200 ppm (Diabrotica Balteata) | percent control (mortality, anti-feedant effect or growth inhibition) at 200 ppm (Spodoptera littoralis)
